Source: PMC12670405, “Second-Generation AURKA-Targeting PROTACs: Structural Optimization toward in Vivo Degradation in Neuroblastoma” (Journal of Medicinal Chemistry, 2025)

Columns and labels:
Experiment in all cases: KINOMEscan scanMAX
Format in all cases: binding
Conditions in all cases: read-out: Percent Control
[1] = target: T1, RSK1(Kin.Dom.2-C-terminal) (Homo sapiens, UniProt Q15418)
T1 construct: RSK1(Kin.Dom.2-C-terminal); purchased Eurofins Discovery (DiscoverX KINOMEscan scanMAX)
Experimental: (§1) The kinome-wide binding assay was performed by Eurofins Discovery using the scanMAX screening platform. More information can be found on the Eurofins Discovery Web site.

CHEK1 = target: T2, CHEK1 (Homo sapiens, UniProt O14757)
T2 construct: purchased Eurofins Discovery (DiscoverX KINOMEscan scanMAX)
Experimental: as §1

FLT3(N841I) = target: T3, FLT3(N841I) (Homo sapiens, UniProt P36888, N841I)
T3 construct: purchased Eurofins Discovery (DiscoverX KINOMEscan scanMAX)
Experimental: as §1

FGFR3(G697C) = target: T4, FGFR3(G697C) (Homo sapiens, UniProt P22607, G697C)
T4 construct: purchased Eurofins Discovery (DiscoverX KINOMEscan scanMAX)
Experimental: as §1

WNK4 = target: T5, WNK4 (Homo sapiens, UniProt Q96J92)
T5 construct: purchased Eurofins Discovery (DiscoverX KINOMEscan scanMAX)
T5 sequence (Q96J92 whole entry): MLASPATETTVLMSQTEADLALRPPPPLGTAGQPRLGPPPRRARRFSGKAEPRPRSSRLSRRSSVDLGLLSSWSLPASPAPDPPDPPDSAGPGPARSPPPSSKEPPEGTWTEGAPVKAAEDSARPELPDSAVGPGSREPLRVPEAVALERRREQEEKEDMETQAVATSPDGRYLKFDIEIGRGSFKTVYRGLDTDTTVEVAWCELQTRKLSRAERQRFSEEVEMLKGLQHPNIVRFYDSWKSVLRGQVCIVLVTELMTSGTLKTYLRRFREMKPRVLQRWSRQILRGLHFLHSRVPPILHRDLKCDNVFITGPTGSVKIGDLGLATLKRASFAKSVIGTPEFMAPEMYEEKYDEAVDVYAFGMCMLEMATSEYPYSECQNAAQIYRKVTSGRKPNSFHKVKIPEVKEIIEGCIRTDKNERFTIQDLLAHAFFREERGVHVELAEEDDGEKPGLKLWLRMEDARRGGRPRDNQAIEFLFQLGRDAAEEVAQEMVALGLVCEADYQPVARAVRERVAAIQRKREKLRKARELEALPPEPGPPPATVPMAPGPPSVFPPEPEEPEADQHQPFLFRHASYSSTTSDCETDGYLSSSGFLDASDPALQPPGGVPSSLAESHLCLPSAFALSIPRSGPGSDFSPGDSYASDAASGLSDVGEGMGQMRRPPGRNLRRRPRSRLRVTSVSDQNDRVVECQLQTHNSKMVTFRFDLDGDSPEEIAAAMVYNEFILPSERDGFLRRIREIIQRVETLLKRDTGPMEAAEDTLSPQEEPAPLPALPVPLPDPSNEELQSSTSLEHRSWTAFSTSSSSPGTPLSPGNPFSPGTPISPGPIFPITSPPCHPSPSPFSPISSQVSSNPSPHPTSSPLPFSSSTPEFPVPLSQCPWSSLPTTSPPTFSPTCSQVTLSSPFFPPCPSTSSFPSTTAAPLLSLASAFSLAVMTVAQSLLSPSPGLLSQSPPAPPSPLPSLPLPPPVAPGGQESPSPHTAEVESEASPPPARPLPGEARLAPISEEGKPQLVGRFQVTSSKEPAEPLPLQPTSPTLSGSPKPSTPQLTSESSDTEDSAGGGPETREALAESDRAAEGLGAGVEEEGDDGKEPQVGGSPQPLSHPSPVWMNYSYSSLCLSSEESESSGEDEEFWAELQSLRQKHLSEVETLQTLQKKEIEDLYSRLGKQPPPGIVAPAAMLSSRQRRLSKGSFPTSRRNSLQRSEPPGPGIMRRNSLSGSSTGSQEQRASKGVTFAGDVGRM
Experimental: as §1

[2] = target: T6, ABL1(M351T)-phosphorylated (Homo sapiens, UniProt P00519, M351T)
T6 construct: purchased Eurofins Discovery (DiscoverX KINOMEscan scanMAX)
Experimental: as §1

PHKG1 = target: T7, PHKG1 (Homo sapiens, UniProt Q16816)
T7 construct: purchased Eurofins Discovery (DiscoverX KINOMEscan scanMAX)
T7 sequence (Q16816 whole entry): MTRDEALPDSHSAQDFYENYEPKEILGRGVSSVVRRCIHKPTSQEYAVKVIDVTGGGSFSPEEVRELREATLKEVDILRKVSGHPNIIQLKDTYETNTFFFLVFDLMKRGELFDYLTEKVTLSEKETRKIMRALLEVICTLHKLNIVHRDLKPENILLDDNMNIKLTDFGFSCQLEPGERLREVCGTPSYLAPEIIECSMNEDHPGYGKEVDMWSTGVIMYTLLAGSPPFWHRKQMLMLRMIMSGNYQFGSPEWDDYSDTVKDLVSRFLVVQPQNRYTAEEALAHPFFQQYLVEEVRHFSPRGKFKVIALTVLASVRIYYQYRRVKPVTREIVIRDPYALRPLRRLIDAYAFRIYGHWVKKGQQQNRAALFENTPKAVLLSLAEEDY
Experimental: as §1

CDK8 = target: T8, CDK8 (Homo sapiens, UniProt P49336)
T8 construct: purchased Eurofins Discovery (DiscoverX KINOMEscan scanMAX)
Experimental: as §1

SNRK = target: T9, SNRK (Homo sapiens, UniProt Q9NRH2)
T9 construct: purchased Eurofins Discovery (DiscoverX KINOMEscan scanMAX)
Experimental: as §1

PIK3CA = target: T10, PIK3CA (Homo sapiens, UniProt P42336)
T10 construct: purchased Eurofins Discovery (DiscoverX KINOMEscan scanMAX)
T10 sequence (P42336 whole entry): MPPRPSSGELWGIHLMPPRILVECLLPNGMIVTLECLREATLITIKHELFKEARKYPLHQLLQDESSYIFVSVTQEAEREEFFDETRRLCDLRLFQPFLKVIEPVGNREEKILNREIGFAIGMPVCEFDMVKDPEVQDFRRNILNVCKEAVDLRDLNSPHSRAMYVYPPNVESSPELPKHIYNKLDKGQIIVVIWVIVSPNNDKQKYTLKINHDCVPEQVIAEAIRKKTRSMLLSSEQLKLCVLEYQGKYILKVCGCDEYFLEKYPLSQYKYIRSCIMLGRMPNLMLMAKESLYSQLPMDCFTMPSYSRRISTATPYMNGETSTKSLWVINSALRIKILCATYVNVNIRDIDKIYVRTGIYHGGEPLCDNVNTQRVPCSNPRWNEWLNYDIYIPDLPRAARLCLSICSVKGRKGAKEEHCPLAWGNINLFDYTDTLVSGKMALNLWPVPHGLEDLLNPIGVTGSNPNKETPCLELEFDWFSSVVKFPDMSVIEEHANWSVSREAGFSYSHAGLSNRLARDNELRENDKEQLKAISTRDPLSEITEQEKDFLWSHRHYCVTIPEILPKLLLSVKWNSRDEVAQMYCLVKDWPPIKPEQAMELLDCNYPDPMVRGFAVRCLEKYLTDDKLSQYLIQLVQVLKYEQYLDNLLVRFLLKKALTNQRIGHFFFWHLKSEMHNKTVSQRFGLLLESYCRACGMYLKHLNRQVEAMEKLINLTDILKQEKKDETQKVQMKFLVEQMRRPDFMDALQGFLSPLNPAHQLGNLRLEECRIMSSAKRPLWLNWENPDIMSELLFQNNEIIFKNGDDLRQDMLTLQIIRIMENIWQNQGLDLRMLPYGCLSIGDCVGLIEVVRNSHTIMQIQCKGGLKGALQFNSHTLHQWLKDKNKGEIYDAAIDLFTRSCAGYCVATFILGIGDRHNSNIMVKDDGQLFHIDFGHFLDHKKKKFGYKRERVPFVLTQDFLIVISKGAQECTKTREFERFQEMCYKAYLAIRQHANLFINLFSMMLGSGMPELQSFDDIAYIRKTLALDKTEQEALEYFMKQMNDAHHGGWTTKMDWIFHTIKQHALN
Experimental: as §1

MEK5 = target: T11, MEK5 (Homo sapiens, UniProt Q13163)
T11 construct: purchased Eurofins Discovery (DiscoverX KINOMEscan scanMAX)
Experimental: as §1

HIPK1 = target: T12, HIPK1 (Homo sapiens, UniProt Q86Z02)
T12 construct: purchased Eurofins Discovery (DiscoverX KINOMEscan scanMAX)
Experimental: as §1

SYK = target: T13, SYK (Homo sapiens, UniProt P43405)
T13 construct: purchased Eurofins Discovery (DiscoverX KINOMEscan scanMAX)
Experimental: as §1

IKK-epsilon = target: T14, IKK-epsilon (Homo sapiens, UniProt Q14164)
T14 construct: purchased Eurofins Discovery (DiscoverX KINOMEscan scanMAX)
Experimental: as §1

[3] = target: T15, TYK2(JH1domain-catalytic) (Homo sapiens, UniProt P29597)
T15 construct: TYK2(JH1domain-catalytic); purchased Eurofins Discovery (DiscoverX KINOMEscan scanMAX)
Experimental: as §1

[4] = target: T16, RPS6KA5(Kin.Dom.2-C-terminal) (Homo sapiens, UniProt O75582)
T16 construct: RPS6KA5(Kin.Dom.2-C-terminal); purchased Eurofins Discovery (DiscoverX KINOMEscan scanMAX)
Experimental: as §1

PDPK1 = target: T17, PDPK1 (Homo sapiens, UniProt O15530)
T17 construct: purchased Eurofins Discovery (DiscoverX KINOMEscan scanMAX)
Experimental: as §1

AKT3 = target: T18, AKT3 (Homo sapiens, UniProt Q9Y243)
T18 construct: purchased Eurofins Discovery (DiscoverX KINOMEscan scanMAX)
Experimental: as §1

IKK-alpha = target: T19, IKK-alpha (Homo sapiens, UniProt O15111)
T19 construct: purchased Eurofins Discovery (DiscoverX KINOMEscan scanMAX)
Experimental: as §1

PDGFRA = target: T20, PDGFRA (Homo sapiens, UniProt P16234)
T20 construct: purchased Eurofins Discovery (DiscoverX KINOMEscan scanMAX)
Experimental: as §1

LATS2 = target: T21, LATS2 (Homo sapiens, UniProt Q9NRM7)
T21 construct: purchased Eurofins Discovery (DiscoverX KINOMEscan scanMAX)
Experimental: as §1

BIKE = target: T22, BIKE (Homo sapiens, UniProt Q9NSY1)
T22 construct: purchased Eurofins Discovery (DiscoverX KINOMEscan scanMAX)
Experimental: as §1

PRKCE = target: T23, PRKCE (Homo sapiens, UniProt Q02156)
T23 construct: purchased Eurofins Discovery (DiscoverX KINOMEscan scanMAX)
T23 sequence (Q02156 whole entry): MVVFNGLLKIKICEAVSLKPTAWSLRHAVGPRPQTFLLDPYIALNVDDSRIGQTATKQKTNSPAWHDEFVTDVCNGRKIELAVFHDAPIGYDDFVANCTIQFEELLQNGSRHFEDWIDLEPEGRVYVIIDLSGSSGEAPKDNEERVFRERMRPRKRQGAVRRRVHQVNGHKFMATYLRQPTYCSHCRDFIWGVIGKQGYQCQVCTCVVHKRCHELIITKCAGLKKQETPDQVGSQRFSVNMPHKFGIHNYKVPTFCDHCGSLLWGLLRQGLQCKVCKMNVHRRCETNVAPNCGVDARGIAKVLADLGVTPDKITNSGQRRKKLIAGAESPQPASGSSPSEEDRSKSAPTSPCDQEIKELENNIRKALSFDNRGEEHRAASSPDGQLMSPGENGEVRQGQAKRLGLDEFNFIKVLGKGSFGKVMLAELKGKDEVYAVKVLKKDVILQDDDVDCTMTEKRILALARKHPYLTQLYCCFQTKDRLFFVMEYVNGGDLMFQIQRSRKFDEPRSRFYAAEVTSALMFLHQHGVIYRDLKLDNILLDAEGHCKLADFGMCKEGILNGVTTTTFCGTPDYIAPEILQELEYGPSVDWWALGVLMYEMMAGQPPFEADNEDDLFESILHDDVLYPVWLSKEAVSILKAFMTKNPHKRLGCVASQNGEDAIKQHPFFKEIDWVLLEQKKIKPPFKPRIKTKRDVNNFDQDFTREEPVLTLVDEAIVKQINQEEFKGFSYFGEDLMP
Experimental: as §1

PIM1 = target: T24, PIM1 (Homo sapiens, UniProt P11309)
T24 construct: purchased Eurofins Discovery (DiscoverX KINOMEscan scanMAX)
Experimental: as §1

IRAK3 = target: T25, IRAK3 (Homo sapiens, UniProt Q9Y616)
T25 construct: purchased Eurofins Discovery (DiscoverX KINOMEscan scanMAX)
Experimental: as §1

CDK9 = target: T26, CDK9 (Homo sapiens, UniProt P50750)
T26 construct: purchased Eurofins Discovery (DiscoverX KINOMEscan scanMAX)
Experimental: as §1

PIK3C2G = target: T27, PIK3C2G (Homo sapiens, UniProt O75747)
T27 construct: purchased Eurofins Discovery (DiscoverX KINOMEscan scanMAX)
Experimental: as §1

MUSK = target: T28, MUSK (Homo sapiens, UniProt O15146)
T28 construct: purchased Eurofins Discovery (DiscoverX KINOMEscan scanMAX)
Experimental: as §1

TSSK1B = target: T29, TSSK1B (Homo sapiens, UniProt Q9BXA7)
T29 construct: purchased Eurofins Discovery (DiscoverX KINOMEscan scanMAX)
Experimental: as §1

CASK = target: T30, CASK (Homo sapiens, UniProt O14936)
T30 construct: purchased Eurofins Discovery (DiscoverX KINOMEscan scanMAX)
Experimental: as §1

ARK5 = target: T31, ARK5 (Homo sapiens, UniProt O60285)
T31 construct: purchased Eurofins Discovery (DiscoverX KINOMEscan scanMAX)
Experimental: as §1

MAP4K4 = target: T32, MAP4K4 (Homo sapiens, UniProt O95819)
T32 construct: purchased Eurofins Discovery (DiscoverX KINOMEscan scanMAX)
T32 sequence (O95819 whole entry): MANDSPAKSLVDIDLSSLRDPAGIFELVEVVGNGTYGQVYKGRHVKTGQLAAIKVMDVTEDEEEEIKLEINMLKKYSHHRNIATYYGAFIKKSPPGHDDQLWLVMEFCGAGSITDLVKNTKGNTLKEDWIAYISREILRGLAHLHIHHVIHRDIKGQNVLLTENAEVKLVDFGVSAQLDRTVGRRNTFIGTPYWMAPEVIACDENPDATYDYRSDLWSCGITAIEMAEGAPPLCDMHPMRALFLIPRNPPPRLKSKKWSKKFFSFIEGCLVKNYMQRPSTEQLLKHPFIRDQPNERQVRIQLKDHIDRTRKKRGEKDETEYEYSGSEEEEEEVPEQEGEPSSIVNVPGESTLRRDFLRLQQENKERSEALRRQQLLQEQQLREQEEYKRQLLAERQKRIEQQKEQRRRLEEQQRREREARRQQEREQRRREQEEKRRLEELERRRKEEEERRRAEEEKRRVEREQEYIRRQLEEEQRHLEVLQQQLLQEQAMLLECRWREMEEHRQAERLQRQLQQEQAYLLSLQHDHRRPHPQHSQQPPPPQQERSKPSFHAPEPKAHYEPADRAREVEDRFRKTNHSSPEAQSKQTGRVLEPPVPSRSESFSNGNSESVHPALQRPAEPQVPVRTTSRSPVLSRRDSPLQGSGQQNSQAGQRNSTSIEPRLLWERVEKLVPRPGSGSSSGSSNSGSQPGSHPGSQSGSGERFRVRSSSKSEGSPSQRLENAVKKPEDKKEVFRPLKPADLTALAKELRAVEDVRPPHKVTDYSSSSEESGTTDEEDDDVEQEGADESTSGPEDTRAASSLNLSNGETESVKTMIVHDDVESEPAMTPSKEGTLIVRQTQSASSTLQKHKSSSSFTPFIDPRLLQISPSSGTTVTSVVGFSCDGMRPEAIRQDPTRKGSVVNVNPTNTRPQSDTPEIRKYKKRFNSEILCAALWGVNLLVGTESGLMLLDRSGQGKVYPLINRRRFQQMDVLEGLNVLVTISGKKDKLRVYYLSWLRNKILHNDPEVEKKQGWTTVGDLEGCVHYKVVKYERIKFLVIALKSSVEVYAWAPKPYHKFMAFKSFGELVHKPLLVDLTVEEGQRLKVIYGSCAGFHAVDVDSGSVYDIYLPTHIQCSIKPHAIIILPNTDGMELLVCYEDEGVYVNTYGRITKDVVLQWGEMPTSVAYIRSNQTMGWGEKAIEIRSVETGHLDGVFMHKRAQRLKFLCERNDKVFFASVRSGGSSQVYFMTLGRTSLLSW
Experimental: as §1

WNK3 = target: T33, WNK3 (Homo sapiens, UniProt Q9BYP7)
T33 construct: purchased Eurofins Discovery (DiscoverX KINOMEscan scanMAX)
Experimental: as §1

T1 sequence (Q15418 392-735 limits assumed): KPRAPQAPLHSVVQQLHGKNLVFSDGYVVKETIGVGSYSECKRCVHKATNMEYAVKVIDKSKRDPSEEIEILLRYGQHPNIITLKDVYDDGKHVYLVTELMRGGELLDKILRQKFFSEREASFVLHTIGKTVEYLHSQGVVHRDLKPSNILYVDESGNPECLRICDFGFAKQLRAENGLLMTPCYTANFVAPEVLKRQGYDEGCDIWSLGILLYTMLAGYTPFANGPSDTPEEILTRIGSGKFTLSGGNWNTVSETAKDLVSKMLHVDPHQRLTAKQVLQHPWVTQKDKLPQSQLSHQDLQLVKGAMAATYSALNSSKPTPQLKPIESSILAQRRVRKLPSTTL

For Cc1cc(Nc2ccc(F)c(CC3(C(=O)N4CCC(F)(CN5CCN(c6ccc(N7CCC(=O)NC7=O)cn6)CC5)CC4)CCN(Cc4cccc(Cl)c4F)CC3)n2)n[nH]1 [SK5527], the remaining binding at 0.1 µM ([1]; 100 nM) was 85%, the remaining binding at 1 µM ([1]; 1000 nM) was 92% and the remaining binding at 0.1 µM (CHEK1; 100 nM) was 100%. The remaining binding at 1 µM (CHEK1; 1000 nM) was 100%, the remaining binding at 0.1 µM (FLT3(N841I); 100 nM) was 83% and the remaining binding at 1 µM (FLT3(N841I); 1000 nM) was 76%. The remaining binding at 0.1 µM (FGFR3(G697C); 100 nM) was 75%, the remaining binding at 1 µM (FGFR3(G697C); 1000 nM) was 67% and the remaining binding at 0.1 µM (WNK4; 100 nM) was 80%. For the same compound, the remaining binding at 1 µM (WNK4; 1000 nM) was 95%, the remaining binding at 0.1 µM ([2]; 100 nM) was 70% and the remaining binding at 1 µM ([2]; 1000 nM) was 34%. The remaining binding at 0.1 µM (PHKG1; 100 nM) was 99%, the remaining binding at 1 µM (PHKG1; 1000 nM) was 100% and the remaining binding at 0.1 µM (CDK8; 100 nM) was 88%. It also gave a remaining binding at 1 µM (CDK8; 1000 nM) of 89%, a remaining binding at 0.1 µM (SNRK; 100 nM) of 71% and a remaining binding at 1 µM (SNRK; 1000 nM) of 53%. It also gave a remaining binding at 0.1 µM (PIK3CA; 100 nM) of 94%, a remaining binding at 1 µM (PIK3CA; 1000 nM) of 90% and a remaining binding at 0.1 µM (MEK5; 100 nM) of 83%. The remaining binding at 1 µM (MEK5; 1000 nM) was 61%, the remaining binding at 0.1 µM (HIPK1; 100 nM) was 81% and the remaining binding at 1 µM (HIPK1; 1000 nM) was 92%. For the same compound, the remaining binding at 0.1 µM (SYK; 100 nM) was 83%, the remaining binding at 1 µM (SYK; 1000 nM) was 100% and the remaining binding at 0.1 µM (IKK-epsilon; 100 nM) was 75%. It also gave a remaining binding at 1 µM (IKK-epsilon; 1000 nM) of 67%, a remaining binding at 0.1 µM ([3]; 100 nM) of 79% and a remaining binding at 1 µM ([3]; 1000 nM) of 81%. It also gave a remaining binding at 0.1 µM ([4]; 100 nM) of 100%, a remaining binding at 1 µM ([4]; 1000 nM) of 96% and a remaining binding at 0.1 µM (PDPK1; 100 nM) of 89%. It also gave a remaining binding at 1 µM (PDPK1; 1000 nM) of 100%, a remaining binding at 0.1 µM (AKT3; 100 nM) of 86% and a remaining binding at 1 µM (AKT3; 1000 nM) of 91%. The remaining binding at 0.1 µM (IKK-alpha; 100 nM) was 100%, the remaining binding at 1 µM (IKK-alpha; 1000 nM) was 100% and the remaining binding at 0.1 µM (PDGFRA; 100 nM) was 92%. For the same compound, the remaining binding at 1 µM (PDGFRA; 1000 nM) was 84%, the remaining binding at 0.1 µM (LATS2; 100 nM) was 69% and the remaining binding at 1 µM (LATS2; 1000 nM) was 43%. For the same compound, the remaining binding at 0.1 µM (BIKE; 100 nM) was 80%, the remaining binding at 1 µM (BIKE; 1000 nM) was 73% and the remaining binding at 0.1 µM (PRKCE; 100 nM) was 100%. The remaining binding at 1 µM (PRKCE; 1000 nM) was 95%, the remaining binding at 0.1 µM (PIM1; 100 nM) was 100% and the remaining binding at 1 µM (PIM1; 1000 nM) was 99%. The remaining binding at 0.1 µM (IRAK3; 100 nM) was 100%, the remaining binding at 1 µM (IRAK3; 1000 nM) was 100% and the remaining binding at 0.1 µM (CDK9; 100 nM) was 90%. The remaining binding at 1 µM (CDK9; 1000 nM) was 97%, the remaining binding at 0.1 µM (PIK3C2G; 100 nM) was 71% and the remaining binding at 1 µM (PIK3C2G; 1000 nM) was 98%. The remaining binding at 0.1 µM (MUSK; 100 nM) was 97%, the remaining binding at 1 µM (MUSK; 1000 nM) was 95% and the remaining binding at 0.1 µM (TSSK1B; 100 nM) was 100%. The remaining binding at 1 µM (TSSK1B; 1000 nM) was 100%, the remaining binding at 0.1 µM (CASK; 100 nM) was 93% and the remaining binding at 1 µM (CASK; 1000 nM) was 87%. It also gave a remaining binding at 0.1 µM (ARK5; 100 nM) of 83%, a remaining binding at 1 µM (ARK5; 1000 nM) of 90% and a remaining binding at 0.1 µM (MAP4K4; 100 nM) of 86%. For the same compound, the remaining binding at 1 µM (MAP4K4; 1000 nM) was 73%, the remaining binding at 0.1 µM (WNK3; 100 nM) was 82% and the remaining binding at 1 µM (WNK3; 1000 nM) was 71%.
